Experimental data as given in publication PMC10854894, “A New Benzo[6,7]oxepino[3,2-b] Pyridine Derivative Induces Apoptosis in Canine Mammary Cancer Cell Lines” (Animals : an Open Access Journal from MDPI, 2024).

Tests used:
Assay type in all cases: cell-based, canine
CMGT071020 cells [1] = test: Transwell migration assay; settings: 24 h, vs control (0.1% DMSO)
Description: (§1) The CMC cell migration assay was carried out using Transwell 24-well microplates with an 8 µm pore size (Costar, Corning, NY, USA). Both CMC cell lines were seeded into the upper Transwell insert at a density of 5 × 10^3 cells/well, containing various concentrations of MPOBA (0–200 µM) with 5% FBS in DMEM media. Then, 10% FBS in DMEM medium was added into the lower chambers, and the cells were incubated for 24 h. After an incubation duration of 24 h, the non-invaded cells were removed with a cotton swab from the upper surface of the membrane, and the invaded cells on the lower surface of the membrane were fixed with 100% methanol for 1 min and stained with the Wright–Giemsa stain for 20 min. The number of migrated cells was averaged by counting five random microscope fields for each sample at 4 × magnification in four independent experiments.

REM134 cells [2] = test: Transwell migration assay; settings: 24 h, vs control (0.1% DMSO)
Description: as §1

CMGT071020 cells [3] = test: Wound healing assay; settings: CMGT071020, 100 or 200 µM, 12 or 24 h, vs untreated control
Description: (§2) The effect of MPOBA on cell migration was examined using a two-dimensional wound healing assay. The REM134 and CMGT071020 cell lines were seeded in a 6-well plate at a density of 5 × 10^5 cells/well and allowed to incubate for 24 h until they reached 100% confluence. The cells were scratched using a sterile 1 mL pipette tip and then treated with MPOBA at concentrations ranging from 0 to 200 µM for 24 h. Images of the scratches were captured at 0, 12, and 24 h post-treatment using phase-contrast microscopy. The wound areas were checked and measured using the NIS-Elements D imaging software program version 5.2 (Nikon, Tokyo, Japan). The cell migration ability was calculated as a percentage of the area covered by cells at 24 h compared to the initial wound area at 0 h. The experiments were repeated four times.

REM134 cells [4] = test: Wound healing assay; settings: REM134, 100 or 200 µM, 12 or 24 h, vs untreated control
Description: as §2

CMGT071020 cells [5] = test: Immunohistochemistry of vimentin and cytokeratin, Allred score; settings: CMGT071020, 0-200 µM, 48 h, treatment vs control
Description: (§3) The cells were cultured in a T-25 cell culture flask (SPL life science, Gyeonggi-do, Republic of Korea) at a density of 2 × 10^5 cells/well and allowed to incubate for 24 h until they reached 60–70% confluence. They were subsequently treated with MPOBA at varying concentrations from 0 to 200 µM for 48 h. After treatment, cells were harvested using TrypLE and subjected to centrifugation at 1200 rpm for 5 min to obtain cell pellets. Then, the supernatant was replaced with 10% formalin, and the cell pellets were fixed overnight. The fixed cell pellets were embedded in paraffin blocks and sectioned with a thickness of 3 μm. These slide sections were then subjected to the deparaffinization and rehydration processes. For antigen retrieval, a heat-induced method was adopted, utilizing a vegetable steamer in a citrate buffer (pH = 6) at 90–100 °C for 45 min, followed by a cooling period of 30 min. After these preparatory steps, slides were mounted on cover plates within a Sequenza slide rack (Thermo Scientific, Waltham, MA, USA), void of air bubbles, and filled with Tris-buffered saline (TBS) (pH = 7.6). The immunohistochemical detection employed a Novolink™ Polymer Detection Kit (Leica Biosystems, Newcastle, UK) according to the manufacturer’s instructions. This began with the inhibition of endogenous peroxidase activity with a 150 μL peroxidase block at room temperature for 5 min, followed by washing with TBS three times for 3 min each. Subsequently, a 150 μL protein block was applied, incubated for 5 min, and washed three times with TBS for 3 min. Primary antibodies, including a vimentin (VT) mouse anti-human monoclonal antibody (Clone V9, ready-to-use kit, Leica Biosystems, Newcastle, UK) and a multi-cytokeratin (CK) mouse antibody (Clone AE1/AE3, ready-to-use kit, Leica Biosystems, Newcastle, UK), were incubated at 37 °C for 1 h. […]
(§4) A quantitative evaluation of the stained slides was performed utilizing the Allred scoring method and QuPath bioimaging software version 0.4.4 [48] to mitigate potential biases. […] The positive cells were systematically detected using the “positive cell detection” command in the analyze menu. The Allred score was calculated according to the quantity of marked cells and the intensity of the staining, as shown in Table S1. […] The scores and criteria used to quantify the labeled cells were 0, no labeling; 1, labeling in <1% of cells; 2, labeling in 1–10% of cells; 3, labeling in 11–33% of cells; 4, labeling in 34–66% of cells; and 5, labeling in 67–100% of cells. […] The staining intensity was determined visually. The sum of these criteria for each sample determined the final score.

REM134 cells [6] = test: as above; settings: REM134, 0-200 µM, 48 h, treatment vs control
Description: as §3, §4

CMGT071020 cells [7] = test: Morphological analysis, phase-contrast microscopy; settings: CMGT071020, 50, 100 or 200 µM, 48 h
Description: (§5) To investigate the morphological changes of the two CMC cell lines during the treatment with MPOBA, they were cultured in a 6-well plate at a density of 2 × 10^5 cells/well and allowed to incubate for 24 h until they reached 70–80% confluence. They were subsequently treated with MPOBA at varying concentrations from 0 to 200 µM for 48 h. Images of the cells were captured using a phase-contrast inverted microscope (Nikon, Tokyo, Japan) at 40× magnification.

REM134 cells [8] = test: Morphological analysis, phase-contrast microscopy; settings: REM134, 50, 100 or 200 µM, 48 h
Description: as §5

Cc1ncccc1Oc1ccccc1C=O [MPOBA, 2-((2-methylpyridin-3-yl)oxy)benzaldehyde]
percentage of migrated cells (CMGT071020 cells [1]; CMGT071020, 100 µM): 68%
percentage of migrated cells (CMGT071020 cells [1]; CMGT071020, 200 µM): 40%
percentage of migrated cells (REM134 cells [2]; REM134, 100 µM): 35%
percentage of migrated cells (REM134 cells [2]; REM134, 200 µM): 26%
cell migration (wound closure) (CMGT071020 cells [3]): significant decline in cell migration
cell migration (wound closure) (REM134 cells [4]): significant decline in cell migration
cytokeratin (CK) expression, Allred score (CMGT071020 cells [5]): no statistically significant difference
vimentin (VT) expression, Allred score (CMGT071020 cells [5]): no statistically significant difference
cytokeratin (CK) expression, Allred score (REM134 cells [6]): no statistically significant difference
vimentin (VT) expression, Allred score (REM134 cells [6]): no statistically significant difference
cell morphology (CMGT071020 cells [7]): reduced in cell size, cell shrinkage, rounding, vacuolation, and a loss of cell-to-cell adhesion
cell morphology (REM134 cells [8]): reduced in cell size, cell shrinkage, rounding, vacuolation, and a loss of cell-to-cell adhesion
